Results as given in ChEMBL document CHEMBL4411288, “Design, synthesis and biological evaluation of novel 7-amino-[1,2,4]triazolo[4,3-f]pteridinone, and 7-aminotetrazolo[1,5-f]pteridinone derivative as potent antitumor agents” (Eur J Med Chem, 2019).
The source made the active and inactive calls. No cut-off for these calls is given here.

Experiments:
MCF7 = experiment: cells; settings: Homo sapiens, MCF7, 72 h
Description: Cytotoxicity against human MCF7 cells assessed as reduction in cell viability after 72 hrs by MTT assay

MDA-MB-231 = experiment: cells; settings: Homo sapiens, MDA-MB-231, 72 h
Description: Cytotoxicity against human MDA-MB-231 cells assessed as reduction in cell viability after 72 hrs by MTT assay

HCT-116 = experiment: Cytotoxicity against human HCT116 cells assessed as reduction in cell viability after 72 hrs by MTT assay; assay type: functional, cell-based; settings: HCT-116, 72 h
A549 [1] = experiment: Cytotoxicity against human A549 cells assessed as reduction in cell viability after 72 hrs by MTT assay; assay type: functional, cell-based; settings: A549, 72 h
PC-3 = experiment: Cytotoxicity against human PC3 cells assessed as reduction in cell viability after 72 hrs by MTT assay; assay type: functional, cell-based; settings: PC-3, 72 h
[2] = target: Serine/threonine-protein kinase PLK1 (Homo sapiens) (UniProt P53350); experiment: Inhibition of recombinant human N-terminal His6-tagged PLK1 expressed in baculovirus infected Sf21 insect cells at 1 uM using FAM-labelled peptide as substrate preincubated for 10 mins followed by substrate addition measured after 1 hr relative to control
A549 [3] = experiment: Induction of apoptosis in human A549 cells assessed as late apoptotic cells at 5 uM after 24 hrs by acridine orange/ethidium bromide staining-based fluorescence microscopic method; assay type: functional, cell-based
A549 [4] = experiment: Induction of apoptosis in human A549 cells assessed as late apoptotic cells at 1 uM after 24 hrs by acridine orange/ethidium bromide staining-based fluorescence microscopic method; assay type: functional, cell-based

Serine/threonine-protein kinase PLK1 (Homo sapiens), sequence (P53350 whole entry): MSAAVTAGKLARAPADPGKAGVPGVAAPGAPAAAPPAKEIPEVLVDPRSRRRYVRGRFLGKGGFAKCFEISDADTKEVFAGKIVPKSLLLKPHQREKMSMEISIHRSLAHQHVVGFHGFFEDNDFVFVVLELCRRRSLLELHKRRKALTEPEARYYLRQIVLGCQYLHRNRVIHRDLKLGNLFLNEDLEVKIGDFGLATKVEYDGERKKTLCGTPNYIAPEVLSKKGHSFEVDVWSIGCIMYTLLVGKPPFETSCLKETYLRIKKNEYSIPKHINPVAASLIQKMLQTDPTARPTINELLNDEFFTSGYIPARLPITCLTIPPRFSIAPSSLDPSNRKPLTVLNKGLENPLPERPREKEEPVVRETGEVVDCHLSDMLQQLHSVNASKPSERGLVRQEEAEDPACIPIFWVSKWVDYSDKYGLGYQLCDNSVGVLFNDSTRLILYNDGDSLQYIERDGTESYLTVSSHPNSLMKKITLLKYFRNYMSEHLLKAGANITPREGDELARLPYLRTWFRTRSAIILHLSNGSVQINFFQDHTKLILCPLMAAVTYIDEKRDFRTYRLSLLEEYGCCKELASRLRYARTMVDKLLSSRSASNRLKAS

Row | Structure (SMILES) | IC50 (MCF7) | IC50 (MDA-MB-231) | IC50 (HCT-116) | IC50 (A549 [1]) | IC50 (PC-3) | inhibition [2] | Activity (A549 [3]) | Activity (A549 [4])
1 | O=c1c2nncn2c2cnc(Nc3ccc(N4CCN(C5CCCC5)CC4)cc3)nc2n1C1CCCC1 | > 50 µM | 3.96 µM | 22.3 µM | > 50 µM | > 50 µM |  |  | 
2 | CC1CN(c2ccc(Nc3ncc4c(n3)n(C3CCCC3)c(=O)c3nncn34)cc2)CC(C)N1 (configuration not stated) | 0.41 µM | 4.8 µM | 4.4 µM | 0.89 µM | 3.26 µM | 72.1% |  | 
3 | O=c1c2nncn2c2cnc(Nc3ccc(N4CCC(O)CC4)cc3)nc2n1C1CCCC1 | > 50 µM | 8.1 µM | 36.1 µM | 41.7 µM | > 50 µM |  |  | 
4 | Cc1nnc2c(=O)n(C3CCCC3)c3nc(Nc4ccc(NC5CCCC5)cc4)ncc3n12 | > 50 µM | > 50 µM | > 50 µM | 9.29 µM | > 50 µM |  |  | 
5 | O=c1c2nncn2c2cnc(Nc3ccc(N4CCN(CCO)CC4)cc3)nc2n1C1CCCC1 | 1.91 µM | > 50 µM | 9.71 µM | 9.8 µM | 19.1 µM |  |  | 
6 | Cc1nnc2c(=O)n(C3CCCC3)c3nc(Nc4ccc(N5CCC(N6CCN(C)CC6)CC5)cc4)ncc3n12 | 3.21 µM | 5.85 µM | 12.1 µM | 2.38 µM | > 50 µM |  |  | 
7 | CN(C)c1ccc(Nc2ncc3c(n2)n(C2CCCC2)c(=O)c2nnnn23)cc1 | 2.58 µM | > 50 µM | > 50 µM | 10.1 µM | > 50 µM |  |  | 
8 | Cc1nnc2c(=O)n(C3CCCC3)c3nc(Nc4ccc(N5CCOCC5)cc4)ncc3n12 | > 50 µM | > 50 µM | 8.91 µM | 4.29 µM | > 50 µM |  |  | 
9 | O=c1c2nnnn2c2cnc(Nc3ccc(N4CCN(CCO)CC4)cc3)nc2n1C1CCCC1 | 2.31 µM | > 50 µM | > 50 µM | 3.85 µM | > 50 µM |  |  | 
10 | O=c1c2nncn2c2cnc(Nc3ccc(N4CCCCC4)cc3)nc2n1C1CCCC1 | > 50 µM | 3.85 µM | 20.1 µM | 3.11 µM | > 50 µM |  |  | 
11 | Cc1nnc2c(=O)n(C3CCCC3)c3nc(Nc4ccc(N(C)C)cc4)ncc3n12 | > 50 µM | > 50 µM | 29.1 µM | 8.86 µM | > 50 µM |  |  | 
12 | O=c1c2nnnn2c2cnc(Nc3ccc(N4CCCC4)cc3)nc2n1C1CCCC1 | > 50 µM | > 50 µM | > 50 µM | 7.86 µM | > 50 µM |  |  | 
13 | Cc1nnc2c(=O)n(C3CCCC3)c3nc(Nc4ccc(N5CCCCC5)cc4)ncc3n12 | > 50 µM | 6.26 µM | 19.1 µM | 5.24 µM | > 50 µM |  |  | 
14 | O=c1c2nnnn2c2cnc(Nc3ccc(NC4CCCC4)cc3)nc2n1C1CCCC1 | > 50 µM | 8.95 µM | 43.2 µM | > 50 µM | > 50 µM |  |  | 
15 | CCN1CCN(c2ccc(Nc3ncc4c(n3)n(C3CCCC3)c(=O)c3nncn34)cc2)CC1 | 0.98 µM | > 50 µM | 7.5 µM | 1.07 µM | 3.48 µM | 27.4% |  | 
16 | O=c1c2nncn2c2cnc(Nc3ccc(NC4CCCC4)cc3)nc2n1C1CCCC1 | > 50 µM | > 50 µM | 21.2 µM | > 50 µM | > 50 µM |  |  | 
17 | CC(=O)c1c(C)c2cnc(Nc3ccc(N4CCNCC4)cn3)nc2n(C2CCCC2)c1=O [PALBOCICLIB] | 4.09 µM | 3.5 µM | 8.9 µM | 1.32 µM | 2.2 µM |  |  | 
18 | CN1CCN(C2CCN(c3ccc(Nc4ncc5c(n4)n(C4CCCC4)c(=O)c4nncn45)cc3)CC2)CC1 | > 50 µM | > 50 µM | 9.3 µM | 2.95 µM | 13.4 µM |  |  | 
19 | CC1CN(c2ccc(Nc3ncc4c(n3)n(C3CCCC3)c(=O)c3nnnn34)cc2)CC(C)N1 (configuration not stated) | 0.5 µM | 1.6 µM | 0.6 µM | 0.44 µM | 1 µM | 77.9% | Active | Active
20 | CN1CCN(c2ccc(Nc3ncc4c(n3)n(C3CCCC3)c(=O)c3nncn34)cc2)CC1 | > 50 µM | > 50 µM | 8 µM | 6.96 µM | 26.5 µM | 44.2% |  | 
21 | CN1CCN(c2ccc(Nc3ncc4c(n3)n(C3CCCC3)c(=O)c3nnnn34)cc2)CC1 | > 50 µM | 15.8 µM | 19.1 µM | 1.25 µM | 3.8 µM | 19.3% |  | 
22 | O=c1c2nnnn2c2cnc(Nc3ccc(N4CCOCC4)cc3)nc2n1C1CCCC1 | > 50 µM | 48.5 µM | 43.2 µM | 4.81 µM | > 50 µM |  |  | 

Row | Structure (SMILES) | IC50 (MCF7) | IC50 (MDA-MB-231) | IC50 (HCT-116) | IC50 (A549 [1]) | IC50 (PC-3) | inhibition [2] | Activity (A549 [3]) | Activity (A549 [4])
23 | CC1CCN(c2ccc(Nc3ncc4c(n3)n(C3CCCC3)c(=O)c3nncn34)cc2)CC1 | > 50 µM | 4.9 µM | 12 µM | 3.31 µM | > 50 µM |  |  | 
24 | Cc1nnc2c(=O)n(C3CCCC3)c3nc(Nc4ccc(N5CCN(C)CC5)cc4)ncc3n12 | 1.05 µM | 0.61 µM | 72.8 µM | 1.92 µM | 7.61 µM | 26.1% |  | 
25 | CC1CCN(c2ccc(Nc3ncc4c(n3)n(C3CCCC3)c(=O)c3nnnn34)cc2)CC1 | > 50 µM | > 50 µM | > 50 µM | 4.92 µM | > 50 µM |  |  | 
26 | O=c1c2nnnn2c2cnc(Nc3ccc(N4CCSCC4)cc3)nc2n1C1CCCC1 | > 50 µM | 37.4 µM | > 50 µM | > 50 µM | > 50 µM |  |  | 
27 | CN1CCN(C2CCN(c3ccc(Nc4ncc5c(n4)n(C4CCCC4)c(=O)c4nnnn45)cc3)CC2)CC1 | > 50 µM | 5.81 µM | 7.62 µM | 1.28 µM | > 50 µM |  |  | 
28 | Cc1nnc2c(=O)n(C3CCCC3)c3nc(Nc4ccc(N5CCSCC5)cc4)ncc3n12 | > 50 µM | > 50 µM | 5.82 µM | 7.19 µM | > 50 µM |  |  | 
29 | Cc1nnc2c(=O)n(C3CCCC3)c3nc(Nc4ccc(N5CCC(O)CC5)cc4)ncc3n12 | > 50 µM | > 50 µM | 18.1 µM | 21.7 µM | > 50 µM |  |  | 
30 | CCN1CCN(c2ccc(N(C(C)=O)c3ncc4c(n3)n(C3CCCC3)c(=O)c3nnc(C)n34)cc2)CC1 | > 50 µM | > 50 µM | 40.3 µM | 20.2 µM | > 50 µM |  |  | 
31 | O=c1c2nncn2c2cnc(Nc3ccc(N4CCSCC4)cc3)nc2n1C1CCCC1 | > 50 µM | 6.4 µM | 12 µM | 2.12 µM | > 50 µM |  |  | 
32 | CCN1CCN(c2ccc(Nc3ncc4c(n3)n(C3CCCC3)c(=O)c3nnc(C)n34)cc2)CC1 | 0.51 µM | 2.25 µM | 9.61 µM | 0.68 µM | 5 µM | 44.7% |  | 
33 | O=c1c2nnnn2c2cnc(Nc3ccc(N4CCCCC4)cc3)nc2n1C1CCCC1 | > 50 µM | > 50 µM | > 50 µM | 1.16 µM | > 50 µM |  |  | 
34 | CC[C@@H]1C(=O)N(C)c2cnc(Nc3ccc(C(=O)N[C@H]4CC[C@H](N5CCN(CC6CC6)CC5)CC4)cc3OC)nc2N1C(C)C [VOLASERTIB] | 0.09 µM | 0.11 µM | 0.11 µM | 0.08 µM | 0.09 µM | 97.7% |  | 
35 | O=c1c2nnnn2c2cnc(Nc3ccc(N4CCN(C5CCCC5)CC4)cc3)nc2n1C1CCCC1 | > 50 µM | > 50 µM | 2.12 µM | > 50 µM | > 50 µM |  |  | 
36 | Cc1nnc2c(=O)n(C3CCCC3)c3nc(Nc4ccc(N5CCCC5)cc4)ncc3n12 | > 50 µM | > 50 µM | > 50 µM | > 50 µM | > 50 µM |  |  | 
37 | O=c1c2nncn2c2cnc(Nc3ccc(N4CCCC4)cc3)nc2n1C1CCCC1 | > 50 µM | > 50 µM | 49.3 µM | 5.63 µM | 11.3 µM |  |  | 
38 | Cc1nnc2c(=O)n(C3CCCC3)c3nc(Nc4ccc(N5CCN(CCO)CC5)cc4)ncc3n12 | 0.75 µM | 3.35 µM | 7.61 µM | 5.46 µM | 8.44 µM | 28.2% |  | 
39 | Cc1nnc2c(=O)n(C3CCCC3)c3nc(Nc4ccc(N5CCN(C6CCCC6)CC5)cc4)ncc3n12 | > 50 µM | 9.12 µM | > 50 µM | 11.4 µM | > 50 µM | 31.6% |  | 
40 | CCN1CCN(c2ccc(Nc3ncc4c(n3)n(C3CCCC3)c(=O)c3nnnn34)cc2)CC1 | > 50 µM | > 50 µM | > 50 µM | 3.57 µM | 16.1 µM |  |  | 
41 | CN(C)c1ccc(Nc2ncc3c(n2)n(C2CCCC2)c(=O)c2nncn23)cc1 | 7.28 µM | > 50 µM | 19.1 µM | 3.89 µM | > 50 µM |  |  | 
42 | Cc1nnc2c(=O)n(C3CCCC3)c3nc(Nc4ccc(N5CCC(C)CC5)cc4)ncc3n12 | > 50 µM | > 50 µM | 11.2 µM | > 50 µM | > 50 µM |  |  | 
43 | O=c1c2nnnn2c2cnc(Nc3ccc(N4CCC(O)CC4)cc3)nc2n1C1CCCC1 | > 50 µM | 53.5 µM | 36.3 µM | > 50 µM | > 50 µM |  |  | 
44 | O=c1c2nncn2c2cnc(Nc3ccc(N4CCOCC4)cc3)nc2n1C1CCCC1 | > 50 µM | 3.5 µM | 8.91 µM | 38.9 µM | > 50 µM |  |  | 
